Experimental data taken from patent US12611432B2 (priority 2017, dated 2026).

Legend:
[1] = system: PTEN KO orthotopic tumors; assay: FTY720 blockade of T cell recruitment in PTEN KO tumor-bearing mice; type: in vivo
Procedure: Survival endpoint was defined by the appearance of hemorrhagic abdominal ascites and/or decreased grooming, ambulation, or piloerection. Volume of all tumor experiments was calculated using caliper measurements at π/6×L×W×H, where L is length of longest axis of the tumor, and W and H are the perpendicular width and height, respectively.
For all in vivo experiments, CP1 was administered intra-urethrally on day 8 post-tumor injection. […]
The Ability of CP1 to Potentiate PD-1 Blockade is Partially Dependent on Increased TIL Recruitment To determine if CP1's ability to recruit lymphocytes into the tumor is necessary for its proven synergy with PD-1 blockade, fingolimod (FTY720), a sphingosine-1 phosphate mimetic that blocks egress of T cells from the lymph nodes into peripheral tissues, was administered. PTEN KO orthotopic tumor-bearing mice were treated with CP1 and anti-PD-1, with the addition of FTY720 administration beginning immediately before CP1 administration, to specifically block CP1-induced T cell infiltration into the tumor without inhibiting the quantity or function of the baseline TILs present in these tumors.

Myc-CaP cells = type: cell-based, murine; conditions: 1 μM mitoxantrone, live or heat killed CP1 MOI 10, 24 or 72 hours
Procedure: (a) LDH level, as a measure of cell death, from CP1 and Myc-CaP co-culture, performed in triplicates. (b-i) Myc-CaP cell were co-cultured with Mx, CP1(MOI 1), or MG1655 (MOI 1) (b, d, g) in normal media or (c, e, f, h, i) with gentamicin (+ G) added after 2 hours. (b, c) ICD was measured via HMGB1 (ELISA, 72 hours), ATP (luminescence assay, 72 hours), and calreticulin (flow cytometry, 24 or 72 hours), performed in biological triplicates, technical duplicates. (d-f) Caspase 3/7 activity (luminescence assay) was measured at (d, e) 6 hours or (f) 24 hours, (d) normalized to cell count (MTT assay), performed in sextuplicates. (g, h) Early stage apoptosis (Annexin V^+PI^-) and late stage apoptosis (Annexin V+PI+) were determined by flow cytometry after 24 hours, performed in triplicates. (i) Western blot analysis of phosphorylated and total MLKL, RIP1, RIP3, full length and cleaved PARP, and β-actin after 24 hours, performed in triplicates.
For indicated in vitro assays, CP1 was heat killed at 70° C. for 45 minutes. […] Additionally, supernatant was assessed for lactate dehydrogenase (LDH) levels as a measure of cell death (CytoTox 96 Non-Radioactive Cytotoxicity Assay, Promega). […] Cells counts were taken at the times of supernatant collection, which were frozen at −80° C. until use for quantifying secreted ATP (Bioluminescent Assay Kit, Sigma) and HMGB1 (ELISA, Tecan Trading).

[2] = system: castration-resistant prostate cancer (CRPC); conditions: monotherapy, patients with CRPC; cited from earlier work

Compound | overall survival (OS) [2] | other results
CCCCCCCCc1ccc(CCC(N)(CO)CO)cc1 [FTY720, Fingolimod] | – | tumor volume, mean [1]: 1394 mm^3
O=C1c2c(O)ccc(O)c2C(=O)c2c(NCCNCCO)ccc(NCCNCCO)c21 [mitoxantrone] | – | ICD markers: secreted HMGB1, secreted ATP, cell surface calreticulin (Myc-CaP cells): elevated
ipilimumab | no improvement in overall survival (OS) | –
nivolumab | no improvement in overall survival (OS) | –
